Source: ChEMBL document CHEMBL1151867, “Two novel monoterpene-chalcone conjugates isolated from the seeds of Alpinia katsumadai” (Bioorg Med Chem Lett, 2009)
≈ marks a conversion by molar mass, not a printed value.

Key:
Format in all cases: functional, cell-based
MDA-MB-435 = test: Cytotoxicity against human MDA-MB-435 cells by MTT method
MCF7 = test: Cytotoxicity against human MCF7 cells by MTT method
HepG2 = test: Cytotoxicity against human HepG2 cells by MTT method

## CC(C)[C@H]1C=C[C@]2(C)Oc3c(C(=O)/C=C/c4ccccc4)c(O)cc(O)c3C2C1 (stereo partly drawn) [Sumadain C]
MDA-MB-435
  IC50: 12.8 mg/L (≈ 32.7 µM)
MCF7
  IC50: 15.9 mg/L (≈ 40.8 µM)
HepG2
  IC50: 13 mg/L (≈ 33.3 µM)
